Consider five compounds from PMC8419314, “Characterization of Compound-Specific, Concentration-Independent Biophysical Properties of Sodium Channel Inhibitor Mechanism of Action Using Automated Patch-Clamp Electrophysiology” (Frontiers in Pharmacology, 2021).

Test [1] has as its target T1, rNaV1.4 channel (Rattus norvegicus, UniProt P15390).
T1 construct: expressed in transfected cells; host or cells: HEK 293
Nature of the test: automated patch-clamp 17-pulse protocol (SDO, RFI, SSI), IonFlux Mercury, cell ensembles. Type of test: cell-based. To be noted: for Ki: inactivated-state affinity, calculated with equation of Bean et al. (1983). Here is the method:
Cell culture and electrophysiology were done as described in the accompanying paper ([Lukacs et al., 2021]). The recombinant rNaV1.4 channel-expressing cell line was generated as described before ([Lukacs et al., 2018]). Transfected HEK 293 cells were maintained in Dulbecco’s Modified Eagle Medium, high glucose supplemented with 10% v/v fetal bovine serum, 100 U/ml of penicillin/streptomycin, and 0.4 mg/ml Geneticin (Life Technologies, Carlsbad, CA). For experiments, cells were dissociated from culture dishes with Accutase (Corning), shaken in serum-free medium for 60 min at room temperature, then centrifuged, and resuspended into the extracellular solution to a concentration of 5 × 10^6 cells/mL. Voltage-clamp recordings were performed on an IonFlux Mercury instrument (Fluxion Biosciences). The composition of solutions (in mM) was: Intracellular solution: 50 CsCl, 10 NaCl, 60 CsF, 20 EGTA, and 10 HEPES; pH 7.2 (adjusted with 1 M CsOH). Extracellular solution: 140 NaCl, 4 KCl, 1 MgCl2, 2 CaCl2, 5 D-Glucose, and 10 HEPES; pH 7.4 (adjusted with 1 M NaOH). The osmolality of intra-and extracellular solutions was set to ∼320 and ∼330 mOsm, respectively. Data were sampled at 20 kHz, and filtered at 10 kHz. Experiments were carried out at room temperature.
Each zone consists of 8 separate sections, which are distinct functional units, containing 12 wells: one well for the cell suspension, one well for the waste, two cell “traps” (intracellular solution-filled wells under negative pressure to establish high resistance seals and then whole-cell configuration), and eight compound wells. […] Two kinds of microfluidic plates are manufactured: In single-cell plates, each cell trap contains a single hole and therefore catches a single cell. In “ensemble plates” there are 20 holes in each cell trap, and 20 cells are recorded simultaneously. […] From the 16 cell ensembles of each zone, we chose n = 6 ensembles for analysis.
We used a complex 17-pulse voltage protocol (Figure 1A), described in detail in the accompanying paper ([Lukacs et al., 2021]), which allowed the assessment of gating kinetics and gating equilibrium in the absence and the presence of inhibitor/modulator compounds. The protocol investigated the effect of different durations of depolarizations: 2.5, 7.5, 22.5, and 67.5 ms with 2.5 ms hyperpolarizing gaps between them; this section (pulses #1 to #5) is shown by different shades of green in Figure 1, and was named “state-dependent onset” (SDO). Next, pulses #6 to #12, as well as #1 investigated the effect of different durations of hyperpolarizations (1, 2, 4, 8, 16, 32, 64, and 498 ms, separated by 5 ms depolarizations) in the section shown by different shades of blue, and named “recovery from inactivation” (RFI). Finally, pulses #12 to #17 assessed the resting-inactivated equilibrium at different membrane potentials in the section named “steady-state inactivation” (SSI). The three sections were similar to protocols we used in previous studies ([Lukacs et al., 2018]; [Földi et al., 2021]).
In addition to automatic fitting, described in the accompanying paper ([Lukacs et al., 2021]), in this study we used a different approach to process SDO, RFI, and SSI data. This analysis focused on deriving compound-specific but concentration-independent descriptors of the mechanism of action, which can lead to a more thorough understanding of the sub-processes involved in drug action, and which can later serve as a basis for constructing kinetic models for the simulation of drug-specific effects. All data analysis was done in Microsoft Excel (RRID:SCR_016137) environment, using VBA routines to accelerate repetitive data management tasks. For each of the 17 pulses peak amplitudes were measured after removing capacitive artifacts and subtracting the leak.

In test [2] the target is T1, rNaV1.4 channel. Described as above. It is filed as cell-based. To be noted: pulse #5, SDO section; read-out: IC50 #5 (after 65.7 ms depol.).
The target in test [3] is sodium channel. The arrangement: method as in Vladimirov et al., 2000. To be noted: resting-state; ref Vladimirov et al., 2000; read-out: KR; cited from earlier work.
Test [4] has as its target sodium channel. The arrangement: method as in Lenkey et al., 2010. To be noted: resting-state; ref Lenkey et al., 2010; read-out: KR; cited from earlier work.
For test [5], the system named is sodium channel. To be noted: from 10 Hz to 50 Hz; ref Desaphy et al. (2014); cited from earlier work.
Where [6] appears, read: 1st pulse-evoked current, resting-state estimate, n = 6 ensembles, read-out: IC50 #1 (estimated KR).
Where [7] appears, read: pulse #7, RFI section, read-out: IC50 #7 (after 1 ms hyperpol.).
[8] abbreviates: pulse #17, SSI section, read-out: IC50 #17 (−70 mV).
[9] abbreviates: time range within which effective inhibitor potency changes upon depolarization.
The mark [10] stands for this setting: time range within which effective inhibitor potency changes upon hyperpolarization.

SMILES strings stand for the structures. Values joined by “and” are separate entries in the source; they are usually repeats but may differ in a detail not shown here. Identical values can stand only once. Like-named read-outs stand apart in the source and are kept apart here.

T1 sequence (P15390 whole entry): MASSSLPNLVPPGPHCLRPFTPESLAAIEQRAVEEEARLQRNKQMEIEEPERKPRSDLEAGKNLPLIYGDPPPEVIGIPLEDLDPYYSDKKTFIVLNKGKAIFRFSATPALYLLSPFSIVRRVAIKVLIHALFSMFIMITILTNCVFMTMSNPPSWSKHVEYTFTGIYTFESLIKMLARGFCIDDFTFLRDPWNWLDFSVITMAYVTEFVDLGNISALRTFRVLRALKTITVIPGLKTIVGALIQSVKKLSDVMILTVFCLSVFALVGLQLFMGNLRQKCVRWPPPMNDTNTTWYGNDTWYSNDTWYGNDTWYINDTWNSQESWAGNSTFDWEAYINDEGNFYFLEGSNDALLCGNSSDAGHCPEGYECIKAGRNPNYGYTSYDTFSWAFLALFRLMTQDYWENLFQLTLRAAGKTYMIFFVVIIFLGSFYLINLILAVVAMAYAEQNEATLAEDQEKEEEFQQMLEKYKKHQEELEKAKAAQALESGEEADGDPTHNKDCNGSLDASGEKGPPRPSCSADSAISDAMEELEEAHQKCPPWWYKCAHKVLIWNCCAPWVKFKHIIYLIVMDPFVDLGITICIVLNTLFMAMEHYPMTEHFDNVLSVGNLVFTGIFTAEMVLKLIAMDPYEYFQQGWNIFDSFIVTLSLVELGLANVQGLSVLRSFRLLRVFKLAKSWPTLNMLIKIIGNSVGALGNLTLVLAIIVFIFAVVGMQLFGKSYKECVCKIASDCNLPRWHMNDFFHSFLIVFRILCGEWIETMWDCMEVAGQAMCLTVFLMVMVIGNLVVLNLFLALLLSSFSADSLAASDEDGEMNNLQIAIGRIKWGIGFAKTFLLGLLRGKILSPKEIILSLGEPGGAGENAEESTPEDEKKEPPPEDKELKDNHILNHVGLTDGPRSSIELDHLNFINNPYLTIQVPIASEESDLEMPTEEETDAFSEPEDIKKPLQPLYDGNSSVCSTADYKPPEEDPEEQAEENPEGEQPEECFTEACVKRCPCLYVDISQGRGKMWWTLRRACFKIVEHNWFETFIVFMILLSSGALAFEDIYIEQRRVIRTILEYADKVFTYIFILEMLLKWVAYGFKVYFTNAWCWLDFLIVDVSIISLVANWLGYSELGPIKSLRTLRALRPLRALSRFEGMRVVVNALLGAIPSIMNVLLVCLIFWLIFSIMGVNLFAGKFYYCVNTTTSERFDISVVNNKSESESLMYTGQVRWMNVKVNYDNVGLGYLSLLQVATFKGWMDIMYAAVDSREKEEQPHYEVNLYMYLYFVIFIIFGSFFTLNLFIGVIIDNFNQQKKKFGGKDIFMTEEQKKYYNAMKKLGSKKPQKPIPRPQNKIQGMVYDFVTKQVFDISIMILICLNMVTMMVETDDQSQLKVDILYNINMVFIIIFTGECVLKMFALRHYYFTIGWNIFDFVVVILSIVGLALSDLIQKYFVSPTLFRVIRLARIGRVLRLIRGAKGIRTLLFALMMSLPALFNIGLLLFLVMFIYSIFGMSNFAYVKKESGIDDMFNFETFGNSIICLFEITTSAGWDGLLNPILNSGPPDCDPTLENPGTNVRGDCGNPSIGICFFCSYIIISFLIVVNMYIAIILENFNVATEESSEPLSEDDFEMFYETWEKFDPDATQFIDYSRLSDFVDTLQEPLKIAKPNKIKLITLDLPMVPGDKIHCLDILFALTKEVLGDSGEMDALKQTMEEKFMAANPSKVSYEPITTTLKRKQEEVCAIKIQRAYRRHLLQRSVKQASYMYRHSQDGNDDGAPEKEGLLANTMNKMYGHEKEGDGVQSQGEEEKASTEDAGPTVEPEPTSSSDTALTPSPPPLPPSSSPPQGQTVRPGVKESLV

For `CCOC(=O)c1ccc(N)cc1` [Benzocaine, benzocaine], the “fraction of channels inhibited” value on rNaV1.4 channel [1] (100 µM, indicated by KI calculated from SSI data) was “more than half”. For the same compound, the concentration for half-maximal inhibition (IC50) at rNaV1.4 channel [1] (setting [6]) was 2240 µM; on rNaV1.4 channel [1] (setting [7]), 290 ± 22.3 µM; at rNaV1.4 channel [1] (setting [8]) it was 170 ± 10.3 µM; on rNaV1.4 channel [2] it was 1300 µM. Moreover, the channels recovered on rNaV1.4 channel [1] (at 2 ms gap duration) is listed as 70–90%. Further, the Ki on rNaV1.4 channel [1] was 79.4 ± 3.9 µM. For the same compound, on rNaV1.4 channel [1] (offset of effect upon hyperpolarization), the “time for micro-offset to be complete” value is reported as not above 4 ms. The macro-offset time constant at rNaV1.4 channel [1] (offset upon drug washout) came out at 1.42 ± 0.59 s. For the same compound, at rNaV1.4 channel [1] (onset of effect upon depolarization), the “time for micro-onset to be complete” value is not above 2.5 ms. Also, the KR/KI ratio on rNaV1.4 channel [1] (state-dependence) worked out at 28.3 ± 3.8; at rNaV1.4 channel [1] (state-dependence, listed as benzocaine) it was 28.3. Further, the micro-onset range on rNaV1.4 channel [1] (setting [9]) fell in the range of 0.1 to 2 ms. Further, the micro-offset range at rNaV1.4 channel [1] (setting [10]) was 0.1 to 4 ms.

Regarding `CCCCN1CCCCC1C(=O)Nc1c(C)cccc1C` (stereo not shown) [Bupivacaine, bupivacaine], the concentration for half-maximal inhibition (IC50) was 94.6 ± 10.7 µM on rNaV1.4 channel [1] (setting [6]), 33.5 ± 2.32 µM at rNaV1.4 channel [1] (setting [7]), 16.3 ± 1.7 µM at rNaV1.4 channel [1] (setting [8]) and 27.3 ± 1.45 µM at rNaV1.4 channel [2]. The Ki on rNaV1.4 channel [1] was 12.7 ± 1.22 µM. The macro-offset time constant was determined as 3.56 ± 0.43 s at rNaV1.4 channel [1] (offset upon drug washout) and 3.56 s at rNaV1.4 channel [1] (offset upon drug washout, listed as bupivacaine). Also, the KR/KI ratio at rNaV1.4 channel [1] (state-dependence) was 7.48 ± 0.68; at rNaV1.4 channel [1] (state-dependence, listed as bupivacaine), 7.48. Also, at rNaV1.4 channel [1] (setting [9]), the micro-onset range was 100–1,000 ms. Further, the micro-offset range on rNaV1.4 channel [1] (setting [10]) was 100–1,000 ms. In addition, the values for the Kd at sodium channel [3] and at sodium channel [4] were approximately 317 µM and approximately 619 µM, respectively.

Consider `CCN(CC)CC(=O)Nc1c(C)cccc1C` [Lidocaine, lidocaine], for which, on rNaV1.4 channel [1], the KR/KI ratio was 69.7 and 69.7 ± 20.9; the macro-offset time constant is 1.72 ± 0.05 s; the micro-offset range fell in the range of 10 to 500 ms; the micro-onset range lay within 1 to 100 ms. For the same compound, on rNaV1.4 channel [1], the “time for micro-onset to be complete” value is reported as “more than 100 ms” and the Ki is 18.4 ± 1.52 µM. Further, the IC50 on rNaV1.4 channel [1] (setting [6]) was 1280 µM. Besides, at rNaV1.4 channel [1] (setting [7]), the IC50 is 71.7 ± 5.83 µM. Further, the half-inhibitory concentration (IC50) on rNaV1.4 channel [1] (setting [8]) is 22.8 ± 2.04 µM. The IC50 at rNaV1.4 channel [2] is 31.9 ± 2.28 µM.

Turning to `Nc1nc2ccc(OC(F)(F)F)cc2s1` [Riluzole, riluzole], the “inhibition, pulses #1, #6 and #12” value on rNaV1.4 channel [1] (100 µM, single cell ensemble) is reported as “no inhibition”. Moreover, the “inhibition, pulses #7 and #17” value on rNaV1.4 channel [1] (100 µM, single cell ensemble) is “almost full inhibition”. In addition, the half-inhibitory concentration (IC50) was 1360 µM at rNaV1.4 channel [1] (setting [6]), 42.1 ± 3.62 µM at rNaV1.4 channel [1] (setting [7]), 6.86 ± 4.36 µM at rNaV1.4 channel [1] (setting [8]) and 27.4 ± 6.44 µM on rNaV1.4 channel [2]. Besides, the Ki at rNaV1.4 channel [1] was 5.63 ± 3.35 µM. This compound registered a macro-offset time constant on rNaV1.4 channel [1] (offset upon drug washout) of 13.6 ± 0.71 s. Further, the “increase of apparent affinity” value in the test on sodium channel [5] was 48 fold.

`NC1=N[C@H](O)[C@H]2[C@H]3O[C@]4(O)O[C@@H]([C@@H](O)[C@@]2(N1)[C@@H]4O)[C@]3(O)CO` [Tetrodotoxin, tetrodotoxin]: on rNaV1.4 channel [1], the KR/KI ratio came out at 1.7 ± 0.11; the “extent of change of EIP during SDO, RFI and SSI sections” value was “less than 2 fold”; the macro-offset time constant is on record as 22.9 ± 1.50 s; the micro-offset range fell in the range of 1 to 10 ms. In addition, the micro-onset range on rNaV1.4 channel [1] fell in the range of 1 to 100 ms. Further, on rNaV1.4 channel [1] (read-out: IC50 #1 (estimated KR)), the IC50 is 0.028 µM. For the same compound, the IC50 on rNaV1.4 channel [1] (read-out: IC50 #5 (after 65.7 ms depol.)) was 0.015 µM. Also, on rNaV1.4 channel [1] (read-out: IC50 #7 (after 1 ms hyperpol.)), the concentration for half-maximal inhibition (IC50) was 0.018 µM. In addition, the IC50 on rNaV1.4 channel [1] (read-out: IC50 #17 (−70 mV)) came out at 0.018 µM.
